pIC50: −log10 of the molar value.
System: 439559-082-T-J2-PDC complex spheroid growth
Test: Anticancer human tumor 439559-082-T-J2-PDC patient-derived colon adenocarcinoma cell line growth inhibition [Asc]
Details: for pIC50: curve of first compound; for viability, T/C: stronger effect = lower value
Procedure, shortened: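 Concentration series start at each agent's clinical Cmax, or at 10 microM when none is established, and drop in half-log steps; agents are applied alone or together to complex spheroids built with HUVEC and hMSC.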

[1] = second compound 0.1 µM, first compound 0.0316 µM
[2] = second compound 0.1 µM, first compound 0.1 µM
[3] = second compound 0.1 µM, first compound 0.316 µM
[4] = second compound 0.1 µM, first compound 1 µM
[5] = second compound 0.316 µM, first compound 0.0316 µM
[6] = second compound 0.316 µM, first compound 0.1 µM
[7] = second compound 0.316 µM, first compound 0.316 µM
[8] = second compound 0.316 µM, first compound 1 µM
[9] = second compound 1 µM, first compound 0.0316 µM
[10] = second compound 1 µM, first compound 0.1 µM
[11] = second compound 1 µM, first compound 0.316 µM
[12] = second compound 1 µM, first compound 1 µM
[13] = second compound 3.16 µM, first compound 0.0316 µM
[14] = second compound 3.16 µM, first compound 0.1 µM
[15] = second compound 3.16 µM, first compound 0.316 µM
[16] = second compound 3.16 µM, first compound 1 µM
[17] = second compound 10 µM, first compound 0.0316 µM
[18] = second compound 10 µM, first compound 0.1 µM
[19] = second compound 10 µM, first compound 0.316 µM
[20] = second compound 10 µM, first compound 1 µM
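Also: spheroids exposed to agents for 7 days starting day 3 after seeding.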
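For viability, T/C in this document: percent of DMSO vehicle control viability with 100% = vehicle.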

In the case of C#Cc1c(F)ccc2cc(O)cc(-c3ncc4c(N5CC6CCC(C5)N6)nc(OCC56CCCN5CC(F)C6)nc4c3F)c12 (stereo not given) + Cc1c(S(C)(=O)=O)c(-c2cc(F)cc(N3CCN(c4ccc(NS(=O)(=O)c5ccc(NC(CCN6CCC(C(=O)OCCCP(=O)(O)O)CC6)CSc6ccccc6)c(S(=O)(=O)C(F)(F)F)c5)cc4)CC3)c2)c(-c2ccc(Cl)cc2)n1C(C)C, the pIC50 (second compound 0.1 µM) was 6.08, the pIC50 (second compound 0.316 µM) was 6.21 and the pIC50 (second compound 1 µM) was 6.17. The pIC50 (second compound 3.16 µM) was 6.73, the pIC50 (second compound 10 µM) was 7.26 and the viability, T/C [1] was 78.3%. It also gave a viability, T/C [2] of 77.3%, a viability, T/C [3] of 61.7% and a viability, T/C [4] of 47%. It also gave a viability, T/C (second compound 0.1 µM, first compound 3.16 µM) of 46.3%, a viability, T/C (second compound 0.1 µM, first compound 10 µM) of 37.1% and a viability, T/C [5] of 79%. The viability, T/C [6] was 75.1%, the viability, T/C [7] was 57.5% and the viability, T/C [8] was 43%. The viability, T/C (second compound 0.316 µM, first compound 3.16 µM) was 40.9%, the viability, T/C (second compound 0.316 µM, first compound 10 µM) was 31.6% and the viability, T/C [9] was 72.6%. The viability, T/C [10] was 66.4%, the viability, T/C [11] was 55.1% and the viability, T/C [12] was 44.1%. The viability, T/C (second compound 1 µM, first compound 3.16 µM) was 41.9%, the viability, T/C (second compound 1 µM, first compound 10 µM) was 27.4% and the viability, T/C [13] was 67.2%. For the same molecule, the viability, T/C [14] was 55%, the viability, T/C [15] was 45.6% and the viability, T/C [16] was 34.6%. The viability, T/C (second compound 3.16 µM, first compound 3.16 µM) was 32.7%, the viability, T/C (second compound 3.16 µM, first compound 10 µM) was 22.5% and the viability, T/C [17] was 56.7%. It also gave a viability, T/C [18] of 41.2%, a viability, T/C [19] of 36.5% and a viability, T/C [20] of 24.4%. The viability, T/C (second compound 10 µM, first compound 3.16 µM) was 19.3% and the viability, T/C (second compound 10 µM, first compound 10 µM) was 14.9%.

CNC(C)C(=O)NC1CN(S(=O)(=O)c2cccc(S(=O)(=O)N3CCC4CCC(C(=O)NC(c5ccccc5)c5ccccc5)N4C(=O)C(NC(=O)C(C)NC)C3)c2)CCC2CCC(C(=O)NC(c3ccccc3)c3ccccc3)N2C1=O (stereo not given) + Cc1c(S(C)(=O)=O)c(-c2cc(F)cc(N3CCN(c4ccc(NS(=O)(=O)c5ccc(NC(CCN6CCC(C(=O)OCCCP(=O)(O)O)CC6)CSc6ccccc6)c(S(=O)(=O)C(F)(F)F)c5)cc4)CC3)c2)c(-c2ccc(Cl)cc2)n1C(C)C showed a pIC50 (second compound 0.1 µM) of under 6.00, a pIC50 (second compound 0.316 µM) of under 6.00 and a pIC50 (second compound 1 µM) of under 6.00. The pIC50 (second compound 3.16 µM) was under 6.00, the pIC50 (second compound 10 µM) was under 6.00 and the viability, T/C (second compound 0.1 µM, first compound 0.00316 µM) was 102%. It also gave a viability, T/C (second compound 0.1 µM, first compound 0.01 µM) of 111%, a viability, T/C [1] of 110% and a viability, T/C [2] of 88.2%. It also gave a viability, T/C [3] of 88%, a viability, T/C [4] of 86.3% and a viability, T/C (second compound 0.316 µM, first compound 0.00316 µM) of 97.9%. For the same molecule, the viability, T/C (second compound 0.316 µM, first compound 0.01 µM) was 105%, the viability, T/C [5] was 108% and the viability, T/C [6] was 85%. The viability, T/C [7] was 83%, the viability, T/C [8] was 79.8% and the viability, T/C (second compound 1 µM, first compound 0.00316 µM) was 97.5%. The viability, T/C (second compound 1 µM, first compound 0.01 µM) was 103%, the viability, T/C [9] was 104% and the viability, T/C [10] was 87.1%. The viability, T/C [11] was 93.9%, the viability, T/C [12] was 80% and the viability, T/C (second compound 3.16 µM, first compound 0.00316 µM) was 91.2%. The viability, T/C (second compound 3.16 µM, first compound 0.01 µM) was 99.2%, the viability, T/C [13] was 102% and the viability, T/C [14] was 71%. It also gave a viability, T/C [15] of 84%, a viability, T/C [16] of 69.7% and a viability, T/C (second compound 10 µM, first compound 0.00316 µM) of 75.5%. It also gave a viability, T/C (second compound 10 µM, first compound 0.01 µM) of 80.4%, a viability, T/C [17] of 90.6% and a viability, T/C [18] of 72.8%. It also gave a viability, T/C [19] of 64.7% and a viability, T/C [20] of 66.1%.

For Cc1nc(N2CCC3(CC2)COC(C)C3N)c(CO)nc1Sc1ccnc(N)c1Cl (stereo not given) + Cc1c(S(C)(=O)=O)c(-c2cc(F)cc(N3CCN(c4ccc(NS(=O)(=O)c5ccc(NC(CCN6CCC(C(=O)OCCCP(=O)(O)O)CC6)CSc6ccccc6)c(S(=O)(=O)C(F)(F)F)c5)cc4)CC3)c2)c(-c2ccc(Cl)cc2)n1C(C)C, the pIC50 (second compound 0.1 µM) was under 5.52, the pIC50 (second compound 0.316 µM) was under 5.52 and the pIC50 (second compound 1 µM) was under 5.52. The pIC50 (second compound 3.16 µM) was under 5.52, the pIC50 (second compound 10 µM) was 5.56 and the viability, T/C (second compound 0.1 µM, first compound 0.00949 µM) was 109%. For the same molecule, the viability, T/C (second compound 0.1 µM, first compound 0.03 µM) was 115%, the viability, T/C (second compound 0.1 µM, first compound 0.0949 µM) was 100% and the viability, T/C (second compound 0.1 µM, first compound 0.3 µM) was 82.6%. For the same molecule, the viability, T/C (second compound 0.1 µM, first compound 0.949 µM) was 86.5%, the viability, T/C (second compound 0.1 µM, first compound 3 µM) was 73.4% and the viability, T/C (second compound 0.316 µM, first compound 0.00949 µM) was 96.4%. For the same molecule, the viability, T/C (second compound 0.316 µM, first compound 0.03 µM) was 107%, the viability, T/C (second compound 0.316 µM, first compound 0.0949 µM) was 103% and the viability, T/C (second compound 0.316 µM, first compound 0.3 µM) was 84.5%. For the same molecule, the viability, T/C (second compound 0.316 µM, first compound 0.949 µM) was 77.9%, the viability, T/C (second compound 0.316 µM, first compound 3 µM) was 72.4% and the viability, T/C (second compound 1 µM, first compound 0.00949 µM) was 89.5%. For the same molecule, the viability, T/C (second compound 1 µM, first compound 0.03 µM) was 97.5%, the viability, T/C (second compound 1 µM, first compound 0.0949 µM) was 98.2% and the viability, T/C (second compound 1 µM, first compound 0.3 µM) was 76.4%. For the same molecule, the viability, T/C (second compound 1 µM, first compound 0.949 µM) was 63%, the viability, T/C (second compound 1 µM, first compound 3 µM) was 70.4% and the viability, T/C (second compound 3.16 µM, first compound 0.00949 µM) was 84%. The viability, T/C (second compound 3.16 µM, first compound 0.03 µM) was 95.7%, the viability, T/C (second compound 3.16 µM, first compound 0.0949 µM) was 92.1% and the viability, T/C (second compound 3.16 µM, first compound 0.3 µM) was 63.6%. It also gave a viability, T/C (second compound 3.16 µM, first compound 0.949 µM) of 65.5%, a viability, T/C (second compound 3.16 µM, first compound 3 µM) of 56.7% and a viability, T/C (second compound 10 µM, first compound 0.00949 µM) of 74.3%. The viability, T/C (second compound 10 µM, first compound 0.03 µM) was 75%, the viability, T/C (second compound 10 µM, first compound 0.0949 µM) was 72.7% and the viability, T/C (second compound 10 µM, first compound 0.3 µM) was 60.2%. The viability, T/C (second compound 10 µM, first compound 0.949 µM) was 60.3% and the viability, T/C (second compound 10 µM, first compound 3 µM) was 49.1%.
